Data from US20250368678A1, “19-NOR-C3,3-DISUBSTITUTED C21-AZACYCLO-S[…] AND METHOD FOR USING SAME” (SHANDONG LUYE PHARMACEUTICAL CO., LTD., priority 2022, published 2025).

Key:
[1] = In vitro liver microsomal stability assay, rat; assay type: in vitro ADME; conditions: for CLint scaled at 1 µM / half-life at 1 µM / microsomal CLint at 1 µM: Rat liver microsomes; for Remaining amount % at 60 min: Rat liver microsomes 0.5 mg/mL, NADPH; for microsomal CLint at 1 µM: read-out: CLint(mic)
Summary of the method: (§1)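 Test compound at […] was incubated at 37° C with 0.5 mg/mL rat or human liver microsomes, 1 mM NADPH and 3 mM MgCl2, in triplicate, sampled 0–60 min. Remaining parent was quantified by LC-MS/MS, giving half-life and microsomal and hepatic intrinsic clearance.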

[2] = target: T1, α4β3δ GABA receptors (α4β3δ-HEK-FlpIn-TRex stable cell strain) (Homo sapiens, UniProt P28472+P48169); test: Whole-cell patch clamp, extrasynaptic functional activity (positive allosteric regulation of GABA-induced current); assay type: cell-based; conditions: patch clamp -60 mV, GABA at EC10-20, α4β3δ-HEK-FlpIn-TRex cells
T1 construct: expressed in transfected cells
T1 sequence (P48169 36-554): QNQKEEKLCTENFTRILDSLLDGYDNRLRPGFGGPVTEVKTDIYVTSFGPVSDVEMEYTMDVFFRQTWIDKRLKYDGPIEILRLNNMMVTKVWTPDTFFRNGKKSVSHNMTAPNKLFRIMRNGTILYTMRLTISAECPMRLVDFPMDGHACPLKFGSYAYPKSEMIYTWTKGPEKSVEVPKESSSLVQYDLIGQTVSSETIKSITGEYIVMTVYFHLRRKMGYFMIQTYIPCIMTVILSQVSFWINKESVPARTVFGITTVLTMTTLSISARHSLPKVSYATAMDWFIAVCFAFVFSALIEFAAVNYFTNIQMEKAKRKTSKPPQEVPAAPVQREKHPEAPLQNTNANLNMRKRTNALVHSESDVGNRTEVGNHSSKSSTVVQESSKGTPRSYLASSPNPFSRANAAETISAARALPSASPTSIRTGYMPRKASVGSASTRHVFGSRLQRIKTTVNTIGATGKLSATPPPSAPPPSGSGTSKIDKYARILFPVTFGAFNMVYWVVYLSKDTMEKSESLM
T1 sequence (P28472 26-473): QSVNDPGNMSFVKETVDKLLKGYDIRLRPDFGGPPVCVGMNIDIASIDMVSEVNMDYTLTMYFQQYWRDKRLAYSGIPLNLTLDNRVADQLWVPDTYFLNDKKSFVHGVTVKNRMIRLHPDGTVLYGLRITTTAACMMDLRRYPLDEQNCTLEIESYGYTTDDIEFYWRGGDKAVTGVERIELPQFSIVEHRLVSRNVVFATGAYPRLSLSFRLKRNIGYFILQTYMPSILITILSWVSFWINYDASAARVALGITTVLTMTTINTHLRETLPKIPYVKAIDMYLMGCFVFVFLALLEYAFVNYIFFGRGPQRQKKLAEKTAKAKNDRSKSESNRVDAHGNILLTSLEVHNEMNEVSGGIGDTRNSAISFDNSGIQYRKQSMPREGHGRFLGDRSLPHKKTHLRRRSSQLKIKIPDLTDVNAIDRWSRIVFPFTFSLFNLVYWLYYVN
T1 sequence (O14764 25-452 partner): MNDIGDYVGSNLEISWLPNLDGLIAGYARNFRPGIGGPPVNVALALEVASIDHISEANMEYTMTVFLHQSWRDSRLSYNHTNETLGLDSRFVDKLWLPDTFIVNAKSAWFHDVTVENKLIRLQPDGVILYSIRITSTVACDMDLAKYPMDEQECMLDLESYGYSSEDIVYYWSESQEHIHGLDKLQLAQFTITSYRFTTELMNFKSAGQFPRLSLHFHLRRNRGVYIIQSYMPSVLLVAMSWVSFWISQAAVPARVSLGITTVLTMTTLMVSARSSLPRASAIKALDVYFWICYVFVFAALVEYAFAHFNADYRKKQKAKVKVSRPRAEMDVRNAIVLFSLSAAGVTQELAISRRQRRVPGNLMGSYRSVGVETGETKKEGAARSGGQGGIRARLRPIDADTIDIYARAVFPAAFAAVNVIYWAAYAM
Summary of the method: (§2)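 Tetracycline-induced stable lines were used: α4β3δ in HEK-FlpIn-TRex and α1β2γ2 in CHO-TRex. Whole-cell patch clamp was run at −60 mV with GABA at EC10-20 ([…]) and compound perfused for 30 s before GABA, with extracellular pH 7.4. Fold increase in GABA current over ≥5 concentrations on ≥3 cells gave EC50 and Emax by Hill fit.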

[3] = target: T2, α1β2γ2 GABA receptors (α1β2γ2-CHO-TRex stable cell strain) (Homo sapiens, UniProt P14867+P47870); test: Whole-cell patch clamp, intrasynaptic functional activity (positive allosteric regulation of GABA-induced current); assay type: cell-based; conditions: patch clamp -60 mV, GABA at EC10-20, α1β2γ2-CHO-TRex cells
T2 construct: expressed in transfected cells
T2 sequence (P14867 28-456): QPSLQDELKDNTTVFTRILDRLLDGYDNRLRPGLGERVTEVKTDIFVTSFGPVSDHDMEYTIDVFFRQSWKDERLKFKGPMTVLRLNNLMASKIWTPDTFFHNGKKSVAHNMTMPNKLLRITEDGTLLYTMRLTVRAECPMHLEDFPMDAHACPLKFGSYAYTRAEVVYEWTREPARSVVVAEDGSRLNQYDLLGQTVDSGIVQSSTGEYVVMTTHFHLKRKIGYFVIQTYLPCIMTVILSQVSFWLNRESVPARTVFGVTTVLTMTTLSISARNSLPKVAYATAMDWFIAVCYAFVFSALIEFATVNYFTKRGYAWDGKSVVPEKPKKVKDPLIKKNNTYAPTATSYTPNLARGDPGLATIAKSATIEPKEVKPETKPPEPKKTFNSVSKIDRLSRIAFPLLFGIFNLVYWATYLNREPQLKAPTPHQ
T2 sequence (P47870 25-512 limits assumed): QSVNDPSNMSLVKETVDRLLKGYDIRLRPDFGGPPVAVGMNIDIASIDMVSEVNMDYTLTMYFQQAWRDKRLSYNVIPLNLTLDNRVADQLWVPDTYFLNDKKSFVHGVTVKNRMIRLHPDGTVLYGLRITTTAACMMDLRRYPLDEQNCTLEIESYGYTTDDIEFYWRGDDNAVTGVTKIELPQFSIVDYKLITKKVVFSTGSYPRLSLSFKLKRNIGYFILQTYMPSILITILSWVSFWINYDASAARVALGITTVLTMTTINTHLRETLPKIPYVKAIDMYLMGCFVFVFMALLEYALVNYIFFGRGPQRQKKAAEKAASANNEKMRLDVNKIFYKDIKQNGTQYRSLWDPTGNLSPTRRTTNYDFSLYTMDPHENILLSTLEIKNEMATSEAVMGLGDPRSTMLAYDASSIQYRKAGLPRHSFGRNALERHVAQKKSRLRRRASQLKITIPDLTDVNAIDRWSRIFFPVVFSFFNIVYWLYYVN
T2 sequence (P18507 40-475 partner): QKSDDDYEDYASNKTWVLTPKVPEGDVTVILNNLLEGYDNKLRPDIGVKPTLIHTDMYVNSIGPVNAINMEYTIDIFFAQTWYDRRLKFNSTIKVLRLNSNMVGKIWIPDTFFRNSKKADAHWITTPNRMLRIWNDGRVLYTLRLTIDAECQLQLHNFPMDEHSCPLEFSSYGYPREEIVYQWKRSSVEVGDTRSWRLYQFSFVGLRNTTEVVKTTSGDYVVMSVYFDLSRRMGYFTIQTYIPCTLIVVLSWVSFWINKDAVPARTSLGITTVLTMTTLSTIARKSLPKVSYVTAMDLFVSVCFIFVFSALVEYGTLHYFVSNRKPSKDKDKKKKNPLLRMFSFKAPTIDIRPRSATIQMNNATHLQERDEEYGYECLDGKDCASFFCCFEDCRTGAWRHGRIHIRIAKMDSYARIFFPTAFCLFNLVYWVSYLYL
Summary of the method: as §2

[4] = In vitro liver microsomal stability assay, human; assay type: in vitro ADME; conditions: for CLint scaled at 1 µM / half-life at 1 µM / microsomal CLint at 1 µM: Human liver microsomes; for Remaining amount % at 60 min: Human liver microsomes 0.5 mg/mL, NADPH; for microsomal CLint at 1 µM: read-out: CLint(mic)
Summary of the method: as §1

| Compound | CLint scaled at 1 µM [1] [mL/min/kg] | half-life at 1 µM [1] [min] | Remaining amount % at 60 min [1] [%] | microsomal CLint at 1 µM [1] [µL/min/mg] | EC50 [2] [nM] | Emax [2] [%] | EC50 [3] [nM] | Emax [3] [%] | CLint scaled at 1 µM [4] [mL/min/kg] | half-life at 1 µM [4] [min] | Remaining amount % at 60 min [4] [%] | microsomal CLint at 1 µM [4] [µL/min/mg] |
| --- | --- | --- | --- | --- | --- | --- | --- | --- | --- | --- | --- | --- |
| Cc1cc(-n2ncn(CC(=O)[C@H]3CC[C@H]4[C@@H]5CC[C@@H]6C[C@](C)(O)CC[C@@H]6[C@H]5CC[C@]34C)c2=O)ccn1 [Compound 36] | 125 | 29 | 12.2 | 69 | 99 | 745 | 119 | 871 | 53 | 23 | 15.9 | 59 |
| C[C@@]1(O)CC[C@H]2[C@H](CC[C@@H]3[C@@H]2CC[C@]2(C)[C@@H](C(=O)Cn4cnn(-c5cc(F)cc(F)c5)c4=O)CC[C@@H]32)C1 [Compound 28] | 43 | 57.8 | 48.8 | 24 | 35 | 441 | 154 | – | 21 | 58.2 | 61.6 | 24 |
| C[C@@]1(O)CC[C@H]2[C@H](CC[C@@H]3[C@@H]2CC[C@]2(C)[C@@H](C(=O)Cn4cnn(-c5ccnc(F)c5)c4=O)CC[C@@H]32)C1 [Compound 21] | 69 | 36.3 | 31.9 | 38 | 116 | – | 153 | – | 23 | 53.3 | 47.9 | 26 |
